How the values were obtained:
[1] = test system: controlled cortical impact TBI at p21; test: Three-chamber social approach task at adulthood after TBI at p21; assay type: in vivo, male C57Bl/6J mice; conditions: 25 mg/kg s.c. at 2, 4, 24, 48 h post-injury
Method: (§1) The controlled cortical impact model of TBI was used as previously described. TBI to the p21 mouse approximates a toddler-aged child, based upon the structural, biochemical and behavioral characteristics of this age. Pups were anaesthetized with 1.25% 2,2,2-tribromoethanol (Avertin; Sigma-Aldrich, St. Louis, MO) in isotonic saline (i.p. bolus at 0.02 mL/g body weight). After craniotomy, mice were subjected to a controlled cortical impact at 4.5 m/s velocity and 1.73 mm depth of penetration, for a sustained depression of 150 ms, using a 3.0 mm convex impactor tip. Mice were maintained on a water-circulating heating pad throughout surgery and recovery. Following impact, the scalp was closed with sutures and each animal administered 0.5 ml of isotonic saline subcutaneously (s.c.) to prevent post-operative dehydration. Sham-operated mice underwent identical surgical procedures, including craniotomy, without receiving the cortical impact. All mice were closely monitored for 1–2 hours post-surgery until return of the righting reflex and full mobilization. Mice were then returned to group-housing, and weighed post-surgery at days 1, 3, and weekly thereafter till the end of the study. […]
The three-chamber paradigm allows for the evaluation of social affiliation and social recognition in mice. […] Data were expressed as time spent in each chamber (% of total time).

TBI in adult mice = conditions: equivalent dose; cited from earlier work
[2] = test system: controlled cortical impact TBI at p21; test: Acute cell death (TUNEL, activated caspase-3) at 48 h after TBI at p21; assay type: in vivo, male C57Bl/6J mice; conditions: 48 h post-injury; 25 mg/kg s.c.
Method: as §1, with “Sham-operated mice underwent identical surgical procedures, including craniotomy, without receiving the cortical impact.” left out, “mobilization.” for “mobilization. Mice were then returned to group-housing, and weighed post-surgery at days 1, 3, and weekly thereafter till the end of the study.”
Brain injured animals and sham controls were euthanized at 2 d post-injury. Dying cells were detected by double-labeling for terminal deoxynucleotidyl transferase-mediated dUTP nick 3’-end labeling (TUNEL) in combination with immunofluorescence for activated (cleaved) caspase-3, a hallmark of apoptosis. […] Immuno-positive cells with DAPI-positive nuclei were counted using Metamorph analysis software (Molecular Devices, Sunnyvale, CA).

[3] = test system: controlled cortical impact TBI at p21; test: Stereological volumes and hippocampal cell counts at adulthood after TBI at p21; assay type: in vivo, male C57Bl/6J mice; conditions: ~2 months post-injury
Method: The controlled cortical impact model of TBI was used as previously described. TBI to the p21 mouse approximates a toddler-aged child, based upon the structural, biochemical and behavioral characteristics of this age. Pups were anaesthetized with 1.25% 2,2,2-tribromoethanol (Avertin; Sigma-Aldrich, St. Louis, MO) in isotonic saline (i.p. bolus at 0.02 mL/g body weight). After craniotomy, mice were subjected to a controlled cortical impact at 4.5 m/s velocity and 1.73 mm depth of penetration, for a sustained depression of 150 ms, using a 3.0 mm convex impactor tip. Mice were maintained on a water-circulating heating pad throughout surgery and recovery. Following impact, the scalp was closed with sutures and each animal administered 0.5 ml of isotonic saline subcutaneously (s.c.) to prevent post-operative dehydration. Sham-operated mice underwent identical surgical procedures, including craniotomy, without receiving the cortical impact. All mice were closely monitored for 1–2 hours post-surgery until return of the righting reflex and full mobilization. Mice were then returned to group-housing, and weighed post-surgery at days 1, 3, and weekly thereafter till the end of the study.
The treatment regime was based upon several considerations. […] Thirdly, we limited treatment to a period of 48 h post-injury in order to minimize potential off-target effects on ongoing brain development processes at this time, given the known roles that these gelatinases play in postnatal synaptic maturation. For acute studies (gelatin zymography and histology) animals were euthanized at 4 hours and for in situ zymography, they were euthanized 1 hour after the last injection. For long-term studies (behavioral and cognitive assessments and histology) animals were euthanized at ~2 months post-injury. Euthanasia was by overdose with 2.5% Avertin i.p. followed by decapitation or cardiac transperfusion as described below.
Upon completion of behavioral and cognitive assessments at ~ 2 months post-injury, anesthetized mice were perfused transcardially with ice-cold saline followed by 4% paraformaldehyde in 0.1M PBS. Collected brains were post-fixed overnight in 4% PFA and then transferred into a 30% sucrose solution for 72 h before being embedded in Neg50^TM (Richard-Allan Scientific, Thermo Fisher Scientific, Fremont, CA). Serial coronal sections spanning the entire cortex were cut at 20 μm or 40 μm (for time points of 48 h or 2 months post-injury, respectively).
An estimation of intact cortical and hippocampal volumes was performed on 40 μm coronal sections stained with cresyl violet, collected at ~ 2 months post-injury. The unbiased Cavalieri method was performed with StereoInvestigator software (MicroBrightField v10.21.1, Williston, VT, USA), using a Nikon E600W microscope configured with a motorized stage, MAC 5000 controller and Retiga 2000R color digital camera (QImaging, Surrey, BC, Canada). Spanning Bregma 1.5 to -3.8 mm, 12–16 sections containing cortex and 7–10 sections containing hippocampus were assessed per brain, using a sampling interval of 8 and a grid size of either 200 μm or 75 μm for cortex and hippocampus, respectively. Measurements were confined to the dorsal hemispheres as previously described using a 2x objective for the cortex and 4x for the hippocampus. The Gundersen mean coefficient of error (m = 1) was maintained ≤0.03 for cortical volume estimates and ≤0.08 for the hippocampus and dentate gyrus (DG). Group means are expressed as estimated volume (mm³). Certain sections were excluded from stereological analyses due to poor tissue integrity, folding or incomplete staining. In these cases, the section was deemed to be ‘missing’ and estimation for this section was calculated from the StereoInvestigator program based upon the adjacent sections. This was permitted for a maximum of 2 non-adjacent sections per brain. […]

MMP-2 = conditions: cited from earlier work

For `O=S(=O)(CC1CS1)c1ccc(Oc2ccc(O)cc2)cc1` (stereo not shown) [p-OH SB-3CT], the “three-chamber task stage 2, preference for sociability” value ([1]; groups = injury or drug treatment) is listed as “no overall differences between groups”, the “three-chamber task stage 3, lack of preference for social novelty after TBI” value ([1]; tested at adulthood) is listed as “not rescued by p-OH SB-3CT” and the “functional and neuropathological outcomes after severe TBI in adult mice” value (TBI in adult mice) is listed as “treatment-dependent improvement in functional and neuropathological outcomes”. The “cell death by TUNEL staining compared to vehicle-treated controls” value [2] was “A similar degree of cell death”, the “cell death by activated caspase-3 compared to vehicle-treated controls” value [2] was “A similar degree of cell death” and the contralateral cortical volume ([3]; TBI groups or sham groups compared) was “did not alter contralateral cortical volumes”. For the same molecule, the “ipsilateral hippocampal volume, TBI mice vs vehicle-treated” value ([3]; TBI, p = 0.0835) was “reduced hippocampal volumes, that did not reach statistical significance”, the “contralateral dentate gyrus volume” value ([3]; sham and TBI mice) was “did not affect contralateral DG volume” and the contralateral hippocampus volume ([3]; sham or TBI brains) was “did not affect the contralateral hippocampus volume”. The “ipsilateral dentate gyrus volume” value ([3]; sham or TBI groups) was “no effect of drug treatment”, the ipsilateral cortical volume ([3]; sham or injured animals) was “did not influence ipsilateral cortical volumes” and the “ipsilateral hippocampal volume, sham mice vs vehicle-treated sham” value ([3]; sham, p = 0.0669) was “tended to exhibit larger hippocampal volumes”. For the same molecule, the Ki (MMP-2) was 6 ± 3 nM.
